# Source: patent publication US10501801B2, “Identification of tumor-protective epitopes for the treatment of cancers” (THE UNIVERSITY OF CONNECTICUT, priority 2012, dated 2019)
# Read-outs that look alike come from different tables or passages of the source. Ends that are not written are not given here.
# Biological target: H-2 K^d (Mus musculus, UniProt P01902)
# Test: Binding of peptides to purified H-2 K^d (inhibition of radiolabeled standard peptide)
# Experimental: Binding assays. Binding of peptides to H-2 K^d was determined using quantitative assays based on the inhibition of binding of a radiolabeled standard peptide to purified MHC molecules, essentially as known in the art. […] Under the conditions utilized, where [label]<[MHC] and IC50≥[MHC], the measured IC50 values are reasonable approximations of the KD values.
# [1] = wild type counterpart peptide, Table 5, read-out: Measured IC50 for K^d Mut/WT: WT
# [2] = wild type counterpart peptide, Table 4, read-out: Measured IC50 for K^d Mut/WT: WT
# [3] = mutated peptide, Table 5, read-out: Measured IC50 for K^d Mut/WT: Mut
Molecule,IC50 [1],IC50,other results
"CC[C@H](C)[C@H](N)C(=O)N[C@@H](Cc1ccc(O)cc1)C(=O)NCC(=O)N[C@H](C(=O)N[C@H](C(=O)N[C@@H](C)C(=O)N[C@@H](CCCNC(=N)N)C(=O)N[C@@H](CC(N)=O)C(=O)N[C@@H](CCCNC(=N)N)C(=O)N[C@@H](C)C(=O)N[C@@H](CC(C)C)C(=O)O)C(C)C)C(C)C [Dis312.1, I(y/D)GVVARNRAL]",–,> 70 µM,–
"AYAKQFAA [Ube4a.2, A(y/D)AKQFAA]",–,> 70 µM,–
AYCETCWE(l/W) (AYCETCWEL; not fully specified; printed as AYCETCWE(l/W); cysteine pairing not given here; listed as Mus musculus) [Apc],–,–,IC50 [2]: 0.06 µM
AYILAALTKL [Trim26.1],–,0.0011 µM,–
AYILAALTKLQ [Trim26.2],–,> 70 µM,–
"CYAKVKEQL [Ssx2ip, CYAK(v/L)KEQL]",–,–,IC50 [2]: 0.0032 µM
D(y/D)VPMEQPRP (DYVPMEQPRP; not fully specified; listed as Mus musculus) [Alkbh6.3],–,–,IC50 [3]: > 70 µM
D(y/D)VPMEQPRPP (DYVPMEQPRPP; not fully specified; listed as Mus musculus) [Alkbh6.4],2.96 µM,–,–
"DYVPMEQP [Alkbh6.1, D(y/D)VPMEQP]",> 70 µM,–,–
"DYVPMEQPR [Alkbh6.2, D(y/D)VPMEQPR]",51.2 µM,–,IC50 [3]: > 70 µM
GFHGCIHEVL [Slit3],–,> 70 µM,–
"GYSVLHLAI [Nfkb1, G(y/D)SVLHLAI]",–,1.61 µM,–
"HYINMILPI [Ufsp2, HYINM(i/S)LPI]",–,–,IC50 [2]: < 0.0001 µM
"HYLQGSNA [Fiz1, H(y/D)LQGSNA]",–,> 70 µM,–
"HYLSSILRL [Pacs2, HYLS(s/A)ILRL]",–,1.27 µM,–
KLQRQYRSPRL [Mast2],–,–,IC50 [3]: 10.1 µM
"LYHTRPTAL [Kdm4b, L(y/D)HTRPTAL]",–,> 70 µM,–
"LYVSKLNGP [Galnt1, L(y/D)VSKLNGP]",–,> 70 µM,–
NYLLSLVAVML [Serinc1],–,20.9 µM,–
PALKSEEKTL [Stau1.3],–,> 70 µM,–
PYKRLKAEPA [Prrc2a],–,0.261 µM,–
"PYLTQYAI [Dhx8.2, P(y/D)LTQYAI]",> 70 µM,–,IC50 [3]: > 70 µM
SWSSRRSLLG(l/R) (SWSSRRSLLGL; not fully specified; listed as Mus musculus) [9430016H08Rik],> 70 µM,–,IC50 [3]: > 70 µM
SYCEPALNQA [Ncdn],–,> 70 µM,–
"SYMLQALCI [Tnpo3, (sy/LD)MLQALCI]",–,0.146 µM,–
"VFPGLMEL [Atxn10.2, VFPGLME(l/R)]",–,–,IC50 [3]: > 70 µM
VYLTCRLEKPA [Gapdh],–,> 70 µM,–
YYVPLLKRVP(l/S) (YYVPLLKRVPL; not fully specified; printed as YYVPLLKRVP(l/S); listed as Mus musculus) [Alms1.2],–,–,IC50 [2]: 1.49 µM

# Now from value to molecule, other results behind:
IC50 [1],Molecule,IC50,other results
> 70 µM,ALKSEEKTL [Stau1.4],–,–
> 70 µM,"AYAKQFAAI [Ube4a.1, A(y/D)AKQFAAI]",–,–
> 70 µM,"AYILAALTKLQ [Zfp236.2, E(y/D)LDLQTQG]",–,IC50 [3]: 10 µM
> 70 µM,"AYRLEGDRS [Dcaf6, A(y/D)RLEGDRS]",–,IC50 [3]: > 70 µM
4.54 µM,ELQGLLEDE(l/R) (ELQGLLEDEL; not fully specified; printed as ELQGLLEDE(l/R); listed as Mus musculus) [Ccdc136],–,IC50 [3]: > 70 µM
> 70 µM,"EYLDLQTQ [Zfp236.1, E(y/D)LDLQTQ]",–,–
> 70 µM,KPALKSEEKTL [Stau1.2],–,–
> 70 µM,"LKSEEKTL [Stau1.1, LKSEEKT(l/P)]",–,–
> 70 µM,"LYDVDAAF [Cpsf2, L(y/D)DVDAAF]",–,–
> 70 µM,"LYEAGVTDE [Tpst2.2, L(y/D)EAGVTDE]",–,–
0.012 µM,LYYERIHKKML [Ugdh],–,–
6.26 µM,P(y/D)LTQYAIIM (PYLTQYAIIM; not fully specified; listed as Mus musculus) [Dhx8.4],–,–
1.65 µM,P(y/D)LTQYAIIML (PYLTQYAIIML; not fully specified; listed as Mus musculus) [Dhx8.1],–,–
1.42 µM,"PYLTQYAII [Dhx8.3, P(y/D)LTQYAII]",–,–
7.05 µM,QVFPGLME(l/R) (QVFPGLMEL; not fully specified; printed as QVFPGLME(l/R); listed as Mus musculus) [Atxn10.1],–,IC50 [3]: > 70 µM
5.11 µM,SEDKIKAIL [Rangap1],–,–
> 70 µM,TTTPGGRPPYL [Sipa113],–,–
